Measured values as given in ChEMBL document CHEMBL1138419 (Bioorg Med Chem Lett, 2007).
In brackets after ≈: the same amount, converted by molar mass.

Tests used:
[1] = target: cGMP-specific 3',5'-cyclic phosphodiesterase (Bos taurus, UniProt Q28156); assay: Inhibition of bovine PDE5 after 24 hrs by HTRF
[2] = Aqueous solubility in PBS at pH 7.4; type: physicochemical

IC50 [1] [nM]	solubility [2] [µM]	Compound
122		O=C1[C@H]2Cc3c([nH]c4ccccc34)[C@@H](c3ccc4c(c3)OCO4)N2C(=O)CN1c1ccc([N+](=O)[O-])cc1
152		CCCCc1ccc(N2CC(=O)N3[C@H](c4ccc5c(c4)OCO5)c4[nH]c5ccccc5c4C[C@@H]3C2=O)cc1
16		COc1ccc(N2CC(=O)N3[C@H](c4ccc5c(c4)OCO5)c4[nH]c5ccccc5c4C[C@@H]3C2=O)cc1
141		O=C1[C@H]2Cc3c([nH]c4ccccc34)[C@@H](c3ccc4c(c3)OCO4)N2C(=O)CN1c1cccc(Cl)c1
134		O=C1[C@H]2Cc3c([nH]c4ccccc34)[C@@H](c3ccc4c(c3)OCO4)N2C(=O)CN1c1ccc(Cl)cc1
68		Cc1cccc(N2CC(=O)N3[C@H](c4ccc5c(c4)OCO5)c4[nH]c5ccccc5c4C[C@@H]3C2=O)c1
28	33 (≈ 14.9 µg/mL)	O=C1[C@H]2Cc3c([nH]c4ccccc34)[C@@H](c3ccc4c(c3)OCO4)N2C(=O)CN1c1cccnc1
91	2.4 (≈ 1.08 µg/mL)	O=C1[C@H]2Cc3c([nH]c4ccccc34)[C@@H](c3ccc4c(c3)OCO4)N2C(=O)CN1c1ccccc1
	9.7 (≈ 3.78 µg/mL)	CN1CC(=O)N2[C@H](c3ccc4c(c3)OCO4)c3[nH]c4ccccc4c3C[C@@H]2C1=O
53	25 (≈ 11.3 µg/mL)	O=C1[C@H]2Cc3c([nH]c4ccccc34)[C@@H](c3ccc4c(c3)OCO4)N2C(=O)CN1c1cncnc1
377		O=C1[C@H]2Cc3c([nH]c4ccccc34)[C@@H](c3ccc4c(c3)OCO4)N2C(=O)CN1c1ccc(C(F)(F)F)cc1
18		O=C1[C@H]2Cc3c([nH]c4ccccc34)[C@@H](c3ccc4c(c3)OCO4)N2C(=O)CN1c1ccsc1
57		O=C1[C@H]2Cc3c([nH]c4ccccc34)[C@@H](c3ccc4c(c3)OCO4)N2C(=O)CN1c1cccs1
